Results as given in ChEMBL document CHEMBL5126592, “Design, synthesis and activity against drug-resistant bacteria evaluation of C-20, C-23 modified 5-O-mycaminosyltylonolide derivatives” (Eur J Med Chem, 2022).
In brackets after ≈: the same amount, converted by molar mass. Activity calls are given as the source filed them. The rule behind the calls is not given here.

Columns and labels:
Staphylococcus aureus [1] = assay: Antibacterial activity against Staphylococcus aureus ATCC 25923 incubated for 16 to 20 hrs by broth microdilution method; assay type: functional; settings: time 16-20 hrs
Staphylococcus aureus [2] = assay: Antibacterial activity against Staphylococcus aureus ATCC 29213 at pH 7.8 incubated for 16 to 20 hrs by broth microdilution method; assay type: functional; settings: time 16-20 hrs
Escherichia coli [3] = assay: Antibacterial activity against Escherichia coli ATCC 25922 incubated for 16 to 20 hrs in presence of 10% foetal bovine serum by broth microdilution method; assay type: functional; settings: time 16-20 hrs
[4] = Genotoxicity in Salmonella typhimurium TA102 assessed as number of revertants at 1.6x10^-6 mg/plate incubated for 72 hrs in presence of liver S9 fraction by Ames test (reference value: 465.33 +/- 18.04); assay type: toxicity, subcellular; settings: salmonella enterica subsp. enterica serovar typhimurium, s9, 72 h
Escherichia coli [5] = assay: Induction of drug resistance in Escherichia coli ATCC 25922 assessed as increase in MIC measured after 30 passages by broth microdilution method; assay type: functional
Escherichia coli [6] = assay: Antibacterial activity against Escherichia coli ATCC 25922 incubated for 16 to 20 hrs using 10^5 CFU/ml bacterial inoculum by broth microdilution method; assay type: functional; settings: time 16-20 hrs
[7] = Genotoxicity in Salmonella typhimurium TA102 assessed as number of revertants at 2x10^-4 mg/plate incubated for 72 hrs in presence of liver S9 fraction by Ames test (reference value: 465.33 +/- 18.04); assay type: toxicity, subcellular; settings: salmonella enterica subsp. enterica serovar typhimurium, s9, 72 h
[8] = Toxicity in Kunming mouse infected with Staphylococcus aureus ATCC 25923 assessed as normal alveolar wall thickness at 20 to 40 mg/kg, iv measured after 1 hr by hematoxylin and eosin staining based microscopic analysis; assay type: organism-based; settings: in vivo, dose 20-40 mg/kg
Escherichia coli [9] = assay: Antibacterial activity against Escherichia coli ATCC 25922 incubated for 16 to 20 hrs in presence of 25% foetal bovine serum by broth microdilution method; assay type: functional; settings: time 16-20 hrs
[10] = Genotoxicity in Salmonella typhimurium TA102 assessed as number of revertants at 4x10^-5 mg/plate incubated for 72 hrs in absence of liver S9 fraction by Ames test (reference value: 386.67 +/- 23.44); assay type: toxicity; settings: salmonella enterica subsp. enterica serovar typhimurium, s9, 72 h
Staphylococcus aureus [11] = assay: Ratio of MBC to MIC for Staphylococcus aureus ATCC 29213; assay type: functional
[12] = Toxicity in Kunming mouse infected with Staphylococcus aureus ATCC 25923 assessed as hyperelastic lung tissue at 20 to 40 mg/kg, iv measured after 1 hr by hematoxylin and eosin staining based microscopic analysis; assay type: organism-based; settings: in vivo, dose 20-40 mg/kg
[13] = Genotoxicity in Salmonella typhimurium TA1535 assessed as number of revertants at 2x10^-4 mg/plate incubated for 72 hrs in absence of liver S9 fraction by Ames test (reference value: 14.33 +/- 0.58); assay type: toxicity; settings: salmonella enterica subsp. enterica serovar typhimurium, s9, 72 h
[14] = Genotoxicity in Salmonella typhimurium TA100 assessed as number of revertants at 1.6x10^-6 mg/plate incubated for 72 hrs in absence of liver S9 fraction by Ames test (reference value: 221.67 +/- 15.57); assay type: toxicity; settings: salmonella enterica subsp. enterica serovar typhimurium, s9, 72 h
[15] = Genotoxicity in Salmonella typhimurium TA102 assessed as number of revertants at 1x10^-3 mg/plate incubated for 72 hrs in presence of liver S9 fraction by Ames test (reference value: 465.33 +/- 18.04); assay type: toxicity, subcellular; settings: salmonella enterica subsp. enterica serovar typhimurium, s9, 72 h
[16] = Genotoxicity in Salmonella typhimurium TA100 assessed as number of revertants at 4x10^-5 mg/plate incubated for 72 hrs in presence of liver S9 fraction by Ames test (reference value: 204.33 +/- 8.14); assay type: toxicity, subcellular; settings: salmonella enterica subsp. enterica serovar typhimurium, s9, 72 h
Staphylococcus aureus [17] = assay: Antibacterial activity against Staphylococcus aureus ATCC 25923 infected in kunming mouse assessed as reduction in viable pathogens at 20 mg/kg, iv measured after 1 hr; assay type: functional, organism-based
Staphylococcus aureus [18] = assay: Antibacterial activity against Staphylococcus aureus ATCC 29213 incubated for 16 to 20 hrs using 10^4 CFU/ml bacterial inoculum by broth microdilution method; assay type: functional; settings: time 16-20 hrs
[19] = Genotoxicity in Salmonella typhimurium TA98 assessed as number of revertants at 1x10^-3 mg/plate incubated for 72 hrs in presence of liver S9 fraction by Ames test (reference value: 43.67+/- 7.1); assay type: toxicity, subcellular; settings: salmonella enterica subsp. enterica serovar typhimurium, s9, 72 h
Staphylococcus aureus [20] = assay: Antibacterial activity against Staphylococcus aureus ATCC 29213 at pH 7 incubated for 16 to 20 hrs by broth microdilution method; assay type: functional; settings: time 16-20 hrs
[21] = Genotoxicity in Salmonella typhimurium TA1535 assessed as number of revertants at 4x10^-5 mg/plate incubated for 72 hrs in absence of liver S9 fraction by Ames test (reference value: 14.33 +/- 0.58); assay type: toxicity; settings: salmonella enterica subsp. enterica serovar typhimurium, s9, 72 h
Escherichia coli [22] = assay: Antibacterial activity against Escherichia coli ATCC 25922 at pH 8.2 incubated for 16 to 20 hrs by broth microdilution method; assay type: functional; settings: time 16-20 hrs
Escherichia coli [23] = assay: Antibacterial activity against Escherichia coli ATCC 25922 at pH 7.2 incubated for 16 to 20 hrs by broth microdilution method; assay type: functional; settings: time 16-20 hrs
Pseudomonas aeruginosa = assay: Antibacterial activity against Pseudomonas aeruginosa LTP-3 incubated for 16 to 20 hrs by broth microdilution method; assay type: functional; settings: time 16-20 hrs
[24] = Genotoxicity in Salmonella typhimurium TA100 assessed as number of revertants at 2x10^-4 mg/plate incubated for 72 hrs in absence of liver S9 fraction by Ames test (reference value: 221.67 +/- 15.57); assay type: toxicity; settings: salmonella enterica subsp. enterica serovar typhimurium, s9, 72 h
Staphylococcus aureus [25] = assay: Antibacterial activity against Staphylococcus aureus ATCC 29213 at pH 8 incubated for 16 to 20 hrs by broth microdilution method; assay type: functional; settings: time 16-20 hrs
Staphylococcus aureus [26] = assay: Antibacterial activity against Staphylococcus aureus ATCC 29213 at pH 7.2 incubated for 16 to 20 hrs by broth microdilution method; assay type: functional; settings: time 16-20 hrs
[27] = Genotoxicity in Salmonella typhimurium TA1537 assessed as number of revertants at 1x10^-3 mg/plate incubated for 72 hrs in absence of liver S9 fraction by Ames test (reference value: 22.67 +/- 2.52); assay type: toxicity; settings: salmonella enterica subsp. enterica serovar typhimurium, s9, 72 h
[28] = Genotoxicity in Salmonella typhimurium TA1537 assessed as number of revertants at 1x10^-3 mg/plate incubated for 72 hrs in presence of liver S9 fraction by Ames test (reference value: 20 +/- 5); assay type: toxicity, subcellular; settings: salmonella enterica subsp. enterica serovar typhimurium, s9, 72 h
[29] = Genotoxicity in Salmonella typhimurium TA100 assessed as number of revertants at 1x10^-3 mg/plate incubated for 72 hrs in presence of liver S9 fraction by Ames test (reference value: 204.33 +/- 8.14); assay type: toxicity, subcellular; settings: salmonella enterica subsp. enterica serovar typhimurium, s9, 72 h
[30] = Genotoxicity in Salmonella typhimurium TA98 assessed as number of revertants at 1.6x10^-6 mg/plate incubated for 72 hrs in presence of liver S9 fraction by Ames test (reference value: 43.67+/- 7.1); assay type: toxicity, subcellular; settings: salmonella enterica subsp. enterica serovar typhimurium, s9, 72 h
Staphylococcus aureus [31] = assay: Antibacterial activity against Staphylococcus aureus ATCC 29213 incubated for 16 to 20 hrs by broth microdilution method; assay type: functional; settings: time 16-20 hrs
Escherichia coli [32] = assay: Antibacterial activity against Escherichia coli ATCC 25922 at pH 7.6 incubated for 16 to 20 hrs by broth microdilution method; assay type: functional; settings: time 16-20 hrs
Escherichia coli [33] = assay: Inhibition of protein synthesis in Escherichia coli ATCC 25922 assessed as reduction in protein content at […] measured upto 12 hrs by microporous enzyme labeling method relative to control; assay type: functional
[34] = Genotoxicity in Salmonella typhimurium TA102 assessed as number of revertants at 1.6x10^-6 mg/plate incubated for 72 hrs in absence of liver S9 fraction by Ames test (reference value: 386.67 +/- 23.44); assay type: toxicity; settings: salmonella enterica subsp. enterica serovar typhimurium, s9, 72 h

CC[C@H]1OC(=O)C[C@@H](O)[C@H](C)[C@@H](O[C@@H]2O[C@H](C)[C@@H](O)[C@H](N(C)C)[C@H]2O)[C@@H](CCN(C)Cc2cn(-c3cnc4ccccc4c3)nn2)C[C@@H](C)C(=O)/C=C/C(C)=C/[C@@H]1CN1CCCCCC1
MIC (Staphylococcus aureus [1]): 0.125 µg/mL (≈ 0.139 µM)
MIC (Staphylococcus aureus [2]): ≤ 0.0625 µg/mL
MIC (Escherichia coli [3]): 2 µg/mL
Activity [4]: 449.33
Activity (Escherichia coli [5]): Active
MIC (Escherichia coli [6]): 0.5 µg/mL (≈ 0.554 µM)
Activity [7]: 456.67
Activity [8]: Non-Toxic
MIC (Escherichia coli [9]): 4 µg/mL
Activity [10]: 429.33
Ratio (Staphylococcus aureus [11]): 2
Activity [12]: Non-Toxic
Activity [13]: 10.33
Activity [14]: 157.67
Activity [15]: 449.33
Activity [16]: 162
Activity (Staphylococcus aureus [17]): Active
MIC (Staphylococcus aureus [18]): 0.125 µg/mL (≈ 0.139 µM)
Activity [19]: 40.33
MIC (Staphylococcus aureus [20]): 2 µg/mL (≈ 2.22 µM)
Activity [21]: 6.33
MIC (Escherichia coli [22]): 0.25 µg/mL (≈ 0.277 µM)
MIC (Escherichia coli [23]): 1 µg/mL (≈ 1.11 µM)
MIC (Pseudomonas aeruginosa): 0.5 µg/mL (≈ 0.554 µM)
Activity [24]: 223.33
MIC (Staphylococcus aureus [25]): ≤ 0.0625 µg/mL
MIC (Staphylococcus aureus [26]): 0.5 µg/mL (≈ 0.554 µM)
Activity [27]: 15.33
Activity [28]: 15.67
Activity [29]: 174.67
Activity [30]: 42.33
MIC (Staphylococcus aureus [31]): 0.125 µg/mL (≈ 0.139 µM)
MIC (Escherichia coli [32]): 0.5 µg/mL (≈ 0.554 µM)
inhibition (Escherichia coli [33]): 32.1%
Activity [34]: 371.33
